According to patent publication US20230159538A1, “PYRROLIDINE-PYRAZOLES AS PYRUVATE KINASE ACTIVATORS” (Global Blood Therapeutics, Inc., priority 2020, published 2023):

Tests used:
[1] = biological target: T1, Human pyruvate kinase R (PKR) (Homo sapiens, UniProt P30613); experiment: Biochemical assay for activation of pyruvate kinase R (Kinase-Glo luminescence, ATP generation); details: for AC50: 0.1 nM PKR, 2 mM FBP, 0.3 mM ADP, 0.1 mM PEP; for PKR % activation: maximal activation level relative to the activation level achieved by AG-348 @ 10 μM
T1 construct: Human pyruvate kinase R (PKR), residues 14-574; 6x-His (N, cleaved yes); 8x-Arg (N, cleaved yes); SUMO (N, cleaved yes); host or cells: E. coli
T1 sequence (P30613 14-574): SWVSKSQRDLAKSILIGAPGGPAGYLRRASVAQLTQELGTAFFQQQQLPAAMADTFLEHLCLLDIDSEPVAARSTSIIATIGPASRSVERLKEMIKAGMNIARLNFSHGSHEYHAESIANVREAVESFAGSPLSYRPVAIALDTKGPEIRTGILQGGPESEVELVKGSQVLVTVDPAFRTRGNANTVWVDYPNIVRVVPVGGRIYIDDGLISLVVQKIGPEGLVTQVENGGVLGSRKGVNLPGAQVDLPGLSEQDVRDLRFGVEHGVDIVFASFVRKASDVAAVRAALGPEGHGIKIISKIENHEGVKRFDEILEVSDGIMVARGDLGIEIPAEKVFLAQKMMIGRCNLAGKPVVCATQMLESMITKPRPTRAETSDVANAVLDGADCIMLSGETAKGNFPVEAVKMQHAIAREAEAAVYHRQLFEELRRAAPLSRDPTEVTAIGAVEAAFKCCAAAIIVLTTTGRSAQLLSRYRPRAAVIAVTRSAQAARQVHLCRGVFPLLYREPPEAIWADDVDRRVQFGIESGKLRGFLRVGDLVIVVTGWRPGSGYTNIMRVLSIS
In short: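 E. coli-expressed human PKR, freed of its His-Arg-SUMO tag and purified by anion exchange and size exclusion, was tested for activation. Read-out was luminescent measurement of ATP generation with Kinase-Glo reagent.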

[2] = biological target: T2, Pyruvate kinase M2 (PKM2) in H1299 cells (Homo sapiens, UniProt P14618); experiment: Cell based assay for activation of pyruvate kinase M2 in lung carcinoma cell line (NADH/LDH coupled assay on cell lysate); details: PKM2 cellular assay; for AC50: H1299 cells, 90 minutes with compound; for PKM2 % activation: maximal activation level relative to the activation level achieved by AG-348 @ 10 μM
T2 construct: endogenous in cells; host or cells: H1299
T2 sequence (P14618 2-531 limits assumed): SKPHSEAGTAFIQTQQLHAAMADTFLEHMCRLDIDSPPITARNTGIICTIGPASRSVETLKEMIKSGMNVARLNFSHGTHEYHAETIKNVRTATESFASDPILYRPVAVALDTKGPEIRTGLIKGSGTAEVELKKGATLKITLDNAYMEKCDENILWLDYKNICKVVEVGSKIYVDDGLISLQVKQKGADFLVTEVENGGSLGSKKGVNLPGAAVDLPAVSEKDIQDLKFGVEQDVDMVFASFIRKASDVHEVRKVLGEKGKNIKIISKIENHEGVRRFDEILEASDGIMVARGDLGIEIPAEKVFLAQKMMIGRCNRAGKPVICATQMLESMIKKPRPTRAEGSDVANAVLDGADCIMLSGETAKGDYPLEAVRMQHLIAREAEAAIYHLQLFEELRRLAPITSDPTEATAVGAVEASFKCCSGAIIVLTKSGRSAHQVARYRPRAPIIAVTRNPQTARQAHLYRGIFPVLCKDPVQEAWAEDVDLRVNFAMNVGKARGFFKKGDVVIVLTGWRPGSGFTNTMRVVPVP
Description: Cell Based Assay for Activation of Pyruvate Kinase M2 in Lung Carcinoma Cell Line
H1299 cells were seeded in 96-well plates at 2,000 cells/well (100 uL). Treated plates were incubated overnight at 37° C. with 5% CO2. Compounds were diluted in complete media and added to cells in the presence of 1% DMSO. Cells were incubated with compound for 90 minutes at 37° C. and 5% CO2 before washing three times with PBS to remove residual compound and then lysed in lysis buffer (Cell Signaling). […] PKM2 activity was measured at steady state using a coupled enzyme activation system based on NADH consumption. PKM2 produces pyruvate and the coupled system uses lactate dehydrogenase (LDH) to reduce pyruvate to lactate with the concomitant oxidation of NADH to NAD^+. Conversion of NADH to NAD^+ was monitored using a SPECTROstar Nano plate reader (BMG Labtech) at a wavelength of 340 nm and subtraction of background absorbance measured at 750 nm. The change in NADH absorbance after PEP addition was monitored and slope obtained by subtracting baseline at 750 nm followed by least squares fitting to a simple linear regression model. A 10-point curve was generated to calculate the AC50 values by fitting the rates of NADH consumption against increasing concentration of compound.

[3] = biological target: PKR (Mus musculus, UniProt P53657); details: mouse model of beta-thalassemia; cited from earlier work
PKR, sequence (P53657 whole entry): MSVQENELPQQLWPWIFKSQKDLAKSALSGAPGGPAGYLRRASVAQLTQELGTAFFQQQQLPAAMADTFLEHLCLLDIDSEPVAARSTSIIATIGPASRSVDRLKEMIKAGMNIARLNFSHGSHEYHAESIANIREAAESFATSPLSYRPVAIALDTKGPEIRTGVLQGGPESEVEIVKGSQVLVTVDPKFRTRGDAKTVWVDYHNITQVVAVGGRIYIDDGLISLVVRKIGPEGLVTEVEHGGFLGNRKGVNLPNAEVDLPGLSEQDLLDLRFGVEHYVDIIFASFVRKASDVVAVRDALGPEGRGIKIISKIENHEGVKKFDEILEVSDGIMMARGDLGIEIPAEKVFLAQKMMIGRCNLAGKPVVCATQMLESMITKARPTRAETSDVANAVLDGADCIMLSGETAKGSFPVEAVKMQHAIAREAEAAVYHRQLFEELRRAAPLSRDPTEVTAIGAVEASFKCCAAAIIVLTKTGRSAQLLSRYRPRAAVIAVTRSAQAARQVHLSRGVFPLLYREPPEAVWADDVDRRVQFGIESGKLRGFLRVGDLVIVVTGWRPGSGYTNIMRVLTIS

Compound	AC50 [1]	PKR % activation [1]	AC50 [2]	PKM2 % activation [2]	RBC parameters [3]
C[C@@H](O)[C@H](C(=O)N1Cc2cn(S(=O)(=O)c3ccc4c(c3)NCCO4)nc2C1)c1ccccc1 [Compound 24]	78 nM	65%	59 nM	63%	
C[C@@H](O)[C@H](C(=O)N1Cc2cn(S(=O)(=O)c3ccc4c(c3)NCCO4)nc2C1)c1ccccc1 [Compound 23]	56 nM	95%	61 nM	116%	
N[C@@H](C(=O)N1Cc2cn(S(=O)(=O)c3ccc(OC(F)F)cc3)nc2C1)c1cccc(F)c1 [Compound 29, (2R)-2-amino-1-{2-[4-(difluoromethoxy)benzenesulfonyl]-2H,4H,5H,6H-pyrrolo[3,4-c]pyrazol-5-yl}-2-(3-fluorophenyl)ethan-1-one]	92 nM		25 nM		
O=C([C@@H](CO)c1ccccc1)N1Cc2cn(S(=O)(=O)c3ccc4ncsc4c3)nc2C1 (single isomer, unassigned) [Compound 1, (2R)-1-[2-(1,3-benzothiazole-6-sulfonyl)-2H,4H,5H,6H-pyrrolo[3,4-c]pyrazol-5-yl]-3-hydroxy-2-phenylpropan-1-one or (2S)-1-[2-(1,3-benzothiazole-6-sulfonyl)-2H,4H,5H,6H-pyrrolo[3,4-c]pyrazol-5-yl]-3-hydroxy-2-phenylpropan-1-one]	28 nM	82%	33 nM	133%	
O=C([C@@H](CO)c1ccccc1)N1Cc2cn(S(=O)(=O)c3ccc4c(c3)OCCO4)nc2C1 (single isomer, unassigned) [Compound 25, (2R)-1-[2-(2,3-dihydro-1,4-benzodioxine-6-sulfonyl)-2H,4H,5H,6H-pyrrolo[3,4-c]pyrazol-5-yl]-3-hydroxy-2-phenylpropan-1-one or (2S)-1-[2-(2,3-dihydro-1,4-benzodioxine-6-sulfonyl)-2H,4H,5H,6H-pyrrolo[3,4-c]pyrazol-5-yl]-3-hydroxy-2-phenylpropan-1-one]	19 nM	44%	31 nM	42%	
Cc1cc(C(N)C(=O)N2Cc3cn(S(=O)(=O)c4ccc5ncsc5c4)nc3C2)ccc1F (racemic) [Compound 39, 2-amino-1-[2-(1,3-benzothiazole-6-sulfonyl)-2H,4H,5H,6H-pyrrolo[3,4-c]pyrazol-5-yl]-2-(4-fluoro-3-methylphenyl)ethan-1-one]	41 nM		53 nM		
O=C(N1Cc2cn(S(=O)(=O)c3ccc4ncsc4c3)nc2C1)C1(c2ccccc2)COC1 [Compound 40, 6-{[5-(3-phenyloxetane-3-carbonyl)-2H,4H,5H,6H-pyrrolo[3,4-c]pyrazol-2-yl]sulfonyl}-1,3-benzothiazole]	60 nM		31 nM		
O=C(c1ccc(NS(=O)(=O)c2cccc3cccnc23)cc1)N1CCN(CC2CC2)CC1 [AG-348, Mitapivat]					improved
O=C([C@@H](CO)c1ccccc1)N1Cc2cn(S(=O)(=O)c3ccc4c(c3)NCCO4)nc2C1 (single isomer, unassigned) [Compound 22, (2R)-1-[2-(3,4-dihydro-2H-1,4-benzoxazine-6-sulfonyl)-2H,4H,5H,6H-pyrrolo[3,4-c]pyrazol-5-yl]-3-hydroxy-2-phenylpropan-1-one or (2S)-1-[2-(3,4-dihydro-2H-1,4-benzoxazine-6-sulfonyl)-2H,4H,5H,6H-pyrrolo[3,4-c]pyrazol-5-yl]-3-hydroxy-2-phenylpropan-1-one]	50 nM	99%	33 nM	79%	
O=C([C@H](O)c1ccccc1)N1Cc2cn(S(=O)(=O)c3ccc4ncsc4c3)nc2C1 [Compound 42, (2R)-1-[2-(1,3-benzothiazole-6-sulfonyl)-2H,4H,5H,6H-pyrrolo[3,4-c]pyrazol-5-yl]-2-hydroxy-2-phenylethan-1-one]	17 nM		16 nM		
N[C@@H](C(=O)N1Cc2cn(S(=O)(=O)c3ccc4ncsc4c3)nc2C1)c1cccc(F)c1 [Compound 32, (2R)-2-amino-1-[2-(1,3-benzothiazole-6-sulfonyl)-2H,4H,5H,6H-pyrrolo[3,4-c]pyrazol-5-yl]-2-(3-fluorophenyl)ethan-1-one]	38 nM		91 nM		
C[C@@H](O)[C@H](C(=O)N1Cc2cn(S(=O)(=O)c3ccc4ncsc4c3)nc2C1)c1ccccc1 (single isomer, unassigned) [Compound 3]	44 nM	104%	45 nM	101%	
N[C@@H](C(=O)N1Cc2cn(S(=O)(=O)c3ccc4ncsc4c3)nc2C1)c1ccccc1F [Compound 17, (2R)-2-amino-1-[2-(1,3-benzothiazole-6-sulfonyl)-2H,4H,5H,6H-pyrrolo[3,4-c]pyrazol-5-yl]-2-(2-fluorophenyl)ethan-1-one]	24 nM		23 nM		
